From US12329822B2, “Antimicrobial tailored chitosan” (UNIVERSITÉ DE GENÈVE, priority 2019, dated 2025)

Experiments:
[1] = system: M. tuberculosis; settings: native peptide; cited from earlier work
[2] = system: P. aeruginosa; settings: native peptide; cited from earlier work
[3] = system: S. aureus; settings: native peptide; cited from earlier work
[4] = system: C. albicans; settings: native peptide; cited from earlier work
[5] = system: E. coli; settings: native peptide; cited from earlier work
[6] = system: P. aeruginosa (PA01); assay: Transmission electron microscopy (TEM) on P. aeruginosa; format: cell-based, Pseudomonas aeruginosa
Experimental: Method 1 for Example 2: Transmission Electron Microscopy (TEM) with A3-S—C1 on P. aeruginosa
Pseudomonas aeruginosa PAO1 in the exponential phase were washed with phosphate buffered saline (PBS) and treated with 5 μg/mL Polymyxin B, 40 μg/mL G3KL and 40 or 64 μg/mL […] in M63 minimal medium. Each time, 1 ml of the bacteria were centrifuged after 15, 30 and 60 min at 12′000 rpm for 3 min and fixed overnight with 2.5% glutaraldehyde (Agar Scientific, Stansted, Essex, UK) in 0.15 M HEPES (Fluka, Buchs, Switzerland) with an osmolarity of 670 mOsm and adjusted to a pH of 7.35. The next day, PAO1 were washed with 0.15 M HEPES three times for 5 min, post fixed with 1% OsO4 (SPI Supplies, West Chester, USA) in 0.1 M Na-cacodylate-buffer (Merck, Darmstadt, Germany) at 4° C. for 1 h. Thereafter, bacteria were washed in 0.1 M Na-cacodylate-buffer three times for 5 min and dehydrated in 70, 80, and 96% ethanol (Alcosuisse, Switzerland) for 15 min each at room temperature. Subsequently, they were immersed in 100% ethanol (Merck, Darmstadt, Germany) three times for 10 min, in acetone (Merck, Darmstadt, Germany) two times for 10 min, and finally in acetone-Epon (1:1) overnight at room temperature. The next day, bacteria were embedded in Epon (Fluka, Buchs, Switzerland) and hardened at 60° C. for 5 days. […]

Row | Substance | MIC [1] [µg/mL] | MIC [2] [µg/mL] | MIC [3] [µg/mL] | MIC [4] [µg/mL] | MIC [5] [µg/mL] | Effect on bacterial membranes (TEM imaging) [6] | Effect on P. aeruginosa (PA01) ([6]; TEM, concentration 5 μg/mL)
1 | IDR-1018: linear AMP VRLIVAVRIWRR (SEQ ID NO: 9) (AMP) | 16 | 19 | 5 | – | – | – | –
2 | OP-145: linear AMP IGKEFKRIVERIKRFLRELVRPLR (SEQ ID NO: 12) (AMP) | – | 9.2 to 18.3 | – | 18.3 | 6.1 to 9.2 | – | –
3 | Polymyxin B | – | – | – | – | – | attacks only the outer membrane of the bacteria | Attack on the outer membrane
